Data reported in patent publication US20230339891A1, “URACIL DERIVATIVES AS MER-AXL INHIBITORS” (BRISTOL-MYERS SQUIBB COMPANY, priority 2018, published 2023).
pIC50: −log10 of the molar value.

Legend:
GST-MERTK 578-872 = GST-MERTK 578-872 (Homo sapiens (Human), UniProt Q12866); assay: MERTK kinase homogeneous time resolved fluorescence (HTRF) binding assay; conditions: 1 nM kinase, fluorescein-labeled kinase tracer at Kd, 60 minutes at room temperature; read-out: Mer HTRF IC50
Method: (§1) MERTK, AXL, TYRO3 Kinase Homogeneous Time Resolved Fluorescence (HTRF) Assay
(§2) Assays were performed in black, flat-bottom, 1536-well plates. The reactions were incubated at room temperature for 60 minutes, following which the HTRF signals, ratio of fluorescence intensities at emission wavelengths for fluorescein acceptor (520 nm) and terbium donor (495 nm), the 520/495 ratio, were measured on the Envision Plate reader. Inhibition data were calculated from the 520/495 ratio generated by the no protein control reactions for 100% inhibition and vehicle-only reactions for 0% inhibition, and dose response curves generated to determine the concentration required for inhibiting 50% of the HTRF signal (IC50). Compounds were dissolved at 10 mM in dimethylsulfoxide (DMSO) and evaluated at eleven concentrations.

HIS-AXL 473-End = HIS-AXL 473-End (Homo sapiens (Human), UniProt P30530); assay: AXL kinase homogeneous time resolved fluorescence (HTRF) binding assay; conditions: 1 nM kinase, fluorescein-labeled kinase tracer at Kd, 60 minutes at room temperature
Method: as §1, §2

HIS-AXL 473-End, sequence (P30530 473-894): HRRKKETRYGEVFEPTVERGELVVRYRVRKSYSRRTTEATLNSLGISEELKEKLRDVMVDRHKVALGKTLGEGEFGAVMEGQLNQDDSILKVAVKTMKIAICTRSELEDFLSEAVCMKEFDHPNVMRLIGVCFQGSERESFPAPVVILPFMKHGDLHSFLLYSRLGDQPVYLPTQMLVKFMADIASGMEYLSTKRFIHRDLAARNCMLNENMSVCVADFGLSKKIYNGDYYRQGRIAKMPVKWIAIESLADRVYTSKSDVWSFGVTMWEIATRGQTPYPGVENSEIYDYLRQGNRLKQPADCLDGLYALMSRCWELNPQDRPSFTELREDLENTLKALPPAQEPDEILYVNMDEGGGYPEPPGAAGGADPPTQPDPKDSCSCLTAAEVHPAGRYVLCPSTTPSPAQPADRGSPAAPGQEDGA
GST-MERTK 578-872, sequence (Q12866 578-872): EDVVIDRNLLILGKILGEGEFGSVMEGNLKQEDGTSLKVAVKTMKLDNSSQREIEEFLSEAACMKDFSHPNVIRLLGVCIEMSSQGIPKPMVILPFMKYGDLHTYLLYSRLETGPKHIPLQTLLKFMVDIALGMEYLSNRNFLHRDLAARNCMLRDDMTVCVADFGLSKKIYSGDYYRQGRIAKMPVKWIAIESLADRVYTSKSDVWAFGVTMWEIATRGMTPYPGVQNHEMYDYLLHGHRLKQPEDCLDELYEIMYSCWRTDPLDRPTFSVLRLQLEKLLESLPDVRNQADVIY

Row | Structure (SMILES) | pIC50 (GST-MERTK 578-872) | pIC50 (HIS-AXL 473-End)
1 | CC(=O)c1ccc(-n2c(=O)c(C(=O)Nc3ccc(Oc4ccnc(Nc5ccc(S(=O)(=O)N(C)C)cn5)c4)c(F)c3)cn(C(C)C)c2=O)cc1 [Example 64] | 6.09 | 6.74
2 | CC(C)n1cc(C(=O)Nc2ccc(Oc3ccnc(Nc4cnc(C#N)cn4)c3)c(F)c2)c(=O)n(-c2ccc(F)cc2)c1=O [Example 26] | 7.22 | 7.74
3 | CC(C)n1cc(C(=O)Nc2ccc(Oc3ccnc(Nc4ncc(Cl)cc4F)c3)c(F)c2)c(=O)n(-c2ccc(F)cc2)c1=O [Example 3] | 7.23 | 5.76
4 | CC(C)n1cc(C(=O)Nc2ccc(Oc3ccnc(Nc4ccc(S(=O)(=O)N(C)C)cn4)c3)c(F)c2)c(=O)n(-c2ccc(Cl)cc2)c1=O [Example 66] | 7.54 | 7.51
5 | CC(C)n1cc(C(=O)Nc2ccc(Oc3ccnc(Nc4ccc(S(=O)(=O)N(C)C)cn4)c3)c(F)c2)c(=O)n(-c2ccc(F)cn2)c1=O [Example 48] | 7.82 | 8.36
6 | CC(C)n1cc(C(=O)Nc2ccc(Oc3ccnc(Nc4ccc(S(=O)(=O)N(C)C)cn4)c3)c(F)c2)c(=O)n(-c2ccc(F)c(F)c2)c1=O [Example 69] | 7.64 | 7.74
7 | CC(C)n1cc(C(=O)Nc2ccc(Oc3ccnc(Nc4ccc(C#N)c(N5CCCC5)n4)c3)c(F)c2)c(=O)n(-c2ccc(F)cc2)c1=O [Example 117] | 8.55 | 8.52
8 | CNS(=O)(=O)c1ccc(Nc2cc(Oc3ccc(NC(=O)c4cn(C(C)C)c(=O)n(-c5ccc(F)cc5)c4=O)cc3F)ccn2)nc1 [Example 77] | 8.08 | 8.30
9 | CC(C)n1cc(C(=O)Nc2ccc(Oc3ccnc(Nc4ccc5cc[nH]c5n4)c3)c(F)c2)c(=O)n(-c2ccc(F)cc2)c1=O [Example 25] | 7.89 | 8.44
10 | CC(C)n1cc(C(=O)Nc2ccc(Oc3ccnc(Nc4ccnc(N5CCCC5)n4)c3)c(F)c2)c(=O)n(Cc2ccccc2)c1=O [Example 106] | 8.09 | 8.09
11 | CC(C)n1cc(C(=O)Nc2ccc(Oc3ccnc(Nc4ccc(S(=O)(=O)N(C)C)cn4)c3)c(F)c2)c(=O)n(-c2ccccc2)c1=O [Example 42] | 7.68 | 8.13
12 | CC(C)n1cc(C(=O)Nc2ccc(Oc3ccnc(Nc4ccc(S(C)(=O)=O)cn4)c3)c(F)c2)c(=O)n(-c2ccc(F)cc2)c1=O [Example 18] | 7.74 | 7.96
13 | CC(C)n1cc(C(=O)Nc2ccc(Oc3ccnc(Nc4ccc(S(N)(=O)=O)cn4)c3)c(F)c2)c(=O)n(-c2ccc(F)cc2)c1=O [Example 19] | 8.36 | 8.80
14 | CC(C)n1cc(C(=O)Nc2ccc(Oc3ccnc(Nc4ccc(S(=O)(=O)N5CCC5)cn4)c3)c(F)c2)c(=O)n(-c2ccc(F)cc2)c1=O [Example 81] | 7.77 | 8.36
15 | CC(C)n1cc(C(=O)Nc2ccc(Oc3ccnc(Nc4ccc(S(=O)(=O)N(C)C)cn4)c3)c(F)c2)c(=O)n(-c2cccc(F)c2)c1=O [Example 68] | 7.70 | 8.15
16 | CC(C)n1cc(C(=O)Nc2ccc(Oc3ccnc(Nc4ccc(S(=O)(=O)N(C)C)cn4)c3)c(F)c2)c(=O)n(-c2cccc(C(F)(F)F)c2)c1=O [Example 72] | 6.92 | 7.05
17 | CC(C)n1cc(C(=O)Nc2ccc(Oc3ccnc(Nc4ccc(S(=O)(=O)N(C)C)cn4)c3)c(F)c2)c(=O)n(-c2ccc(C(F)(F)F)cc2)c1=O [Example 65] | 6.90 | 7.00
18 | CC(C)n1cc(C(=O)Nc2ccc(Oc3ccnc(Nc4ccc(N5CCC(N)C5=O)cn4)c3)c(F)c2)c(=O)n(-c2ccc(F)cc2)c1=O (stereo not shown) [Example 90] | 8.51 | 8.66
19 | CN(C)S(=O)(=O)c1ccc(Nc2cc(Oc3ccc(NC(=O)c4cn(C5CC5)c(=O)n(-c5ccccc5)c4=O)cc3F)ccn2)nc1 [Example 43] | 7.68 | 6.65

Second part, the compound after the results:

Row | pIC50 (GST-MERTK 578-872) | pIC50 (HIS-AXL 473-End) | Structure (SMILES)
20 | 5.84 | 8.54 | CC(C)n1cc(C(=O)Nc2ccc(Oc3ccnc(Nc4ccc(S(=O)(=O)N(C)C)cn4)c3)cc2)c(=O)n(-c2ccc(F)cc2)c1=O [Example 74, N-{4-[(2-{[5-(dimethylsulfamoyl)pyridin-2-yl]amino}pyridin-4-yl)oxy]phenyl}-3-(4-fluorophenyl)-2,4-dioxo-1-(propan-2-yl)-1,2,3,4-tetrahydropyrimidine-5-carboxamide]
21 | 7.38 | 8.46 | CC(C)n1cc(C(=O)Nc2ccc(Oc3ccnc(Nc4ccc(S(=O)(=O)N(C)C)cn4)c3)cc2)c(=O)n(-c2ccccc2)c1=O [Example 75, N-{4-[(2-{[5-(dimethylsulfamoyl)pyridin-2-yl]amino}pyridin-4-yl)oxy]phenyl}-2,4-dioxo-3-phenyl-1-(propan-2-yl)-1,2,3,4-tetrahydropyrimidine-5-carboxamide]
22 | 7.72 | 8.41 | CC(C)n1cc(C(=O)Nc2ccc(Oc3ccnc(Nc4ccc(S(=O)(=O)N5CCN(C)CC5)cn4)c3)c(F)c2)c(=O)n(-c2ccc(F)cc2)c1=O [Example 85]
23 | 9.00 | 8.96 | CC(C)n1cc(C(=O)Nc2ccc(Oc3ccnc(Nc4nc(N5CCN(S(C)(=O)=O)CC5)ccc4F)c3)c(F)c2)c(=O)n(-c2ccc(F)cc2)c1=O [Example 135, N-{3-fluoro-4-[(2-{[3-fluoro-6-(4-methanesulfonylpiperazin-1-yl)pyridin-2-yl]amino}pyridin-4-yl)oxy]phenyl}-3-(4-fluorophenyl)-2,4-dioxo-1-(propan-2-yl)-1,2,3,4-tetrahydropyrimidine-5-carboxamide]
24 | 7.72 | 8.17 | Cc1cnc(Nc2cc(Oc3ccc(NC(=O)c4cn(C(C)C)c(=O)n(-c5ccc(F)cc5)c4=O)cc3F)ccn2)cn1 [Example 27]
25 | 7.96 | 8.42 | CN(C)S(=O)(=O)c1ccc(Nc2cc(Oc3ccc(NC(=O)c4cn(C5CC5)c(=O)n(-c5ccc(F)cc5)c4=O)cc3F)ccn2)nc1 [Example 40, 1-Cyclopropyl-N-{4-[(2-{[5-(dimethylsulfamoyl)pyridin-2-yl]amino}pyridin-4-yl)oxy]-3-fluorophenyl}-3-(4-fluorophenyl)-2,4-dioxo-1,2,3,4-tetrahydropyrimidine-5-carboxamide]
26 | 8.82 | 8.38 | COC(=O)N1CCN(c2nc(Nc3cc(Oc4ccc(NC(=O)c5cn(C(C)C)c(=O)n(-c6ccc(F)cc6)c5=O)cc4F)ccn3)ccc2C#N)CC1 [Example 119]
27 | 8.44 | 8.47 | Cc1cnc(Nc2cc(Oc3ccc(NC(=O)c4cn(C(C)C)c(=O)n(-c5ccc(F)cc5)c4=O)cc3F)ccn2)nc1N1CCN(S(C)(=O)=O)CC1 [Example 137, N-(3-fluoro-4-[(2-{[4-(4-methanesulfonylpiperazin-1-yl)-5-methylpyrimidin-2-yl]amino}pyridin-4-yl)oxy]phenyl)-3-(4-fluorophenyl)-2,4-dioxo-1-(propan-2-yl)-1,2,3,4-tetrahydropyrimidine-5-carboxamide]
28 | 8.74 | 8.85 | CC(C)n1cc(C(=O)Nc2ccc(Oc3ccnc(Nc4ccc(C#N)c(N5CCC(S(C)(=O)=O)CC5)n4)c3)c(F)c2)c(=O)n(-c2ccc(F)cc2)c1=O [Example 123]
29 | 7.15 | 7.72 | CN(C)S(=O)(=O)c1ccc(Nc2cc(Oc3ccc(NC(=O)c4cn(C)c(=O)n(-c5ccc(F)cc5)c4=O)cc3F)ccn2)nc1 [Example 44]
30 | 8.37 | 9.10 | CC(C)n1cc(C(=O)Nc2ccc(Oc3ccnc(Nc4ccc(C(=O)NCC(F)F)cn4)c3)c(F)c2)c(=O)n(-c2ccc(F)cc2)c1=O [Example 95]
31 | 7.70 | 8.13 | CCc1cnc(Nc2cc(Oc3ccc(NC(=O)c4cn(C(C)C)c(=O)n(-c5ccc(F)cc5)c4=O)cc3F)ccn2)cn1 [Example 28]
32 | 6.78 | 7.32 | CC(C)n1cc(C(=O)Nc2ccc(Oc3ccnc(Nc4ncc(C(F)(F)F)cn4)c3)c(F)c2)c(=O)n(-c2ccc(F)cc2)c1=O [Example 30]
33 | 8.80 | 8.96 | CC(C)n1cc(C(=O)Nc2ccc(Oc3ccnc(Nc4ccc(C#N)c(N5CCC(O)CC5)n4)c3)c(F)c2)c(=O)n(-c2ccc(F)cc2)c1=O [Example 120]
34 | 8.62 | 8.41 | COC1CCN(c2nc(Nc3cc(Oc4ccc(NC(=O)c5cn(C(C)C)c(=O)n(-c6ccc(F)cc6)c5=O)cc4F)ccn3)ccc2C#N)CC1 [Example 121]
35 | 8.37 | 9.10 | CC(C)n1cc(C(=O)Nc2ccc(Oc3ccnc(Nc4ccn(C(F)F)n4)c3)c(F)c2)c(=O)n(-c2ccc(F)cc2)c1=O [Example 35, N-{4-[(2-{[1-(Difluoromethyl)-1H-pyrazol-3-yl]amino}pyridin-4-yl)oxy]-3-fluorophenyl}-3-(4-fluorophenyl)-2,4-dioxo-1-(propan-2-yl)-1,2,3,4-tetrahydropyrimidine-5-carboxamide]
36 | 7.80 | 8.46 | Cn1cc(C(=O)Nc2ccc(Oc3ccnc(Nc4ccc(S(C)(=O)=O)cn4)c3)c(F)c2)c(=O)n(-c2ccc(F)cc2)c1=O [Example 38]
37 | 8.41 | 8.51 | CC(C)n1cc(C(=O)Nc2ccc(Oc3ccnc(Nc4ccnc(N5CCCC5)n4)c3)c(F)c2)c(=O)n(C23CC(C2)C3)c1=O [Example 104, 3-(Bicyclo[1.1.1]pentan-1-yl)-N-(3-fluoro-4-((2-((2-(pyrrolidin-1-yl)pyrimidin-4-yl)amino)pyridin-4-yl)oxy)phenyl)-1-isopropyl-2,4-dioxo-1,2,3,4-tetrahydropyrimidine-5-carboxamide]
38 | 8.22 | 8.01 | CC(C)n1cc(C(=O)Nc2ccc(Oc3ccnc(Nc4ccc(C#N)c(N5CCC(O)(C(F)(F)F)CC5)n4)c3)c(F)c2)c(=O)n(-c2ccc(F)cc2)c1=O [Example 122]
